In patent US20240246941A1, “SUBSTITUTED 4-(3-AMINOPROP-1-YL)AMINOQUINOLINE ANALOGS AS MODULATORS OF MELANOMA-ASSOCIATED ANTIGEN 11 UBIQUITIN LIGASE” (ST. JUDE CHILDREN'S RESEARCH HOSPITAL, INC., priority 2020, published 2024) one finds TR-FRET signal data, which are given here for 71 compounds.

In this assay the target is MAGE-A11:PCF11 (Homo sapiens (Human), UniProt P43364). The assay can be described thus: TR-FRET single point screening at 15 μM. The format is binding. Set-up: unit not given here. In outline:
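Competition TR-FRET: compounds at final 15 μM mixed with 200 nM FAM-PCF11_4, 5 nM GST-MAGEA11 and 5 nM Tb-anti-GST in Tris pH 7.5/MgCl2/BSA/DTT buffer, room temperature, 90 min. Emission ratio 520/490 nm (340 nm excitation) expressed as % inhibition relative to positive and negative controls.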
On the technique in general: TR-FRET usually uses a lanthanide donor and a delayed reading to cut background.

Setting [1] is: single point TR-FRET screening at 15 μM against MAGE-A11:PCF11.
Setting [2] is: single point TR-FRET screening of quinoline compounds against MAGE-A11:PCF11, 15 μM.

Sequence of MAGE-A11:PCF11 (P43364 218-429): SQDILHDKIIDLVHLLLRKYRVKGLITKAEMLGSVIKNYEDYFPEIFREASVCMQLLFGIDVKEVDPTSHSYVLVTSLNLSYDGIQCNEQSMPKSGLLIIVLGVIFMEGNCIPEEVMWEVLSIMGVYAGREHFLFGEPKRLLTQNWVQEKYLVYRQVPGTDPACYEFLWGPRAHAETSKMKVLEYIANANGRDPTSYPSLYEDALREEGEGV

On to `O=[N+]([O-])c1ccc(CN(CCCCNc2ccnc3cc(Cl)ccc23)Cc2ccccc2)cc1` [SJ000361202], for which the TR-FRET signal under setting [1] is listed as 15.25. Same read-out and setting: the same measure for `O=C(O)c1ccccc1CN(CCCCNc1ccnc2cc(Cl)ccc12)Cc1ccccc1` [SJ000361203]: 4.099; for `Clc1ccc2c(NCCCCN(Cc3ccccc3)Cc3cccc4ccccc34)ccnc2c1` [SJ000361204]: 26.49. As to `Clc1ccc2c(NCCCCN(Cc3ccccc3)Cc3ccc4ccccc4c3)ccnc2c1` [SJ000361205], the TR-FRET signal under setting [1] is given as 24.64. Regarding `Cc1cccc(CN(CCCCNc2ccnc3cc(Cl)ccc23)Cc2ccccc2)c1` [SJ000361206], under setting [1], the TR-FRET signal was determined as 29.54. The compound `Clc1ccc(CN(CCCCNc2ccnc3cc(Cl)ccc23)Cc2ccccc2)c(Cl)c1` [SJ000361207] had a TR-FRET signal under setting [1] of 35.43.

For `CCC(C)CN(CCCCNc1ccnc2cc(Cl)ccc12)Cc1ccccc1` (centres unmarked) [SJ000361208], the TR-FRET signal under setting [1] is on record as 35.37. On the same count and under the same terms, then `Cc1ccc(C)c(CN(CCCCNc2ccnc3cc(Cl)ccc23)Cc2ccccc2)c1` [SJ000361209], with 32.65.

Take `COc1cccc(CN(CCCCNc2ccnc3cc(Cl)ccc23)Cc2ccccc2)c1` [SJ000361210]: the TR-FRET signal under setting [1] turned out to be 11.72. Under setting [1], `Clc1ccc2c(NCCCCN(CCc3ccccc3)Cc3ccccc3)ccnc2c1` [SJ000361211] gave a TR-FRET signal of 23.38.

`CCCCCCN(CCCCNc1ccnc2cc(Cl)ccc12)Cc1ccccc1` [SJ000361212] came in with a TR-FRET signal under setting [1] of 23.58. In turn, `CCCN(CCC)CCCNc1ccnc2cc(C(F)(F)F)ccc12` [SJ000361250] came in with a TR-FRET signal under setting [2] of 15.68. Same read-out and setting: then `CCCN(CCCNc1ccnc2cc(C(F)(F)F)ccc12)Cc1ccncc1` [SJ000361251], with 17.49; and `CCCN(CCCNc1ccnc2cc(C(F)(F)F)ccc12)Cc1ccccn1` [SJ000361252], with 15.16; and `CCCN(CCCNc1ccnc2cc(C(F)(F)F)ccc12)Cc1cccs1` [SJ000361253], with 19.53. On to `CCCN(CCCNc1ccnc2cc(C(F)(F)F)ccc12)Cc1ccsc1` [SJ000361254], for which the TR-FRET signal under setting [2] is on record as 28.88. As for `CCCN(CCCNc1ccnc2cc(C(F)(F)F)ccc12)Cc1ccc[nH]1` [SJ000361255], the TR-FRET signal under setting [2] is listed as 30.66. The same measure, in the same setting: the same measure for `CCCN(CCCNc1ccnc2cc(C(F)(F)F)ccc12)Cc1ccccc1` [SJ000361256]: 28.82. Compound `CCCN(CCCNc1ccnc2cc(C(F)(F)F)ccc12)Cc1ccccc1O` [SJ000361257] returned a TR-FRET signal under setting [2] of 26.5.

Under setting [2], `CCCN(CCCNc1ccnc2cc(C(F)(F)F)ccc12)Cc1ccc(C)s1` [SJ000361258] showed a TR-FRET signal of 19.08. The compound `CCCN(CCCNc1ccnc2cc(C(F)(F)F)ccc12)Cc1ccccc1C(F)(F)F` [SJ000361259] returned a TR-FRET signal under setting [2] of 4.988.

Regarding `CCCN(CCCNc1ccnc2cc(C(F)(F)F)ccc12)Cc1cccc(OC)c1O` [SJ000361260], the TR-FRET signal under setting [2] is recorded as 15.49. As to `CCCN(CCCNc1ccnc2cc(C(F)(F)F)ccc12)Cc1ccc(C)o1` [SJ000361261], under setting [2], the TR-FRET signal was 23.91. Same read-out and setting: then `CCCN(CCCNc1ccnc2cc(C(F)(F)F)ccc12)Cc1c(F)cccc1OC` [SJ000361262], with 29.23; and `CCCN(CCCNc1ccnc2cc(C(F)(F)F)ccc12)Cc1cc(OC)ccc1O` [SJ000361263], with 25.26; and `CCCN(CCCNc1ccnc2cc(C(F)(F)F)ccc12)Cc1c(C)cc(C)cc1C` [SJ000361264], with 19.93. Under setting [2], `CCCN(CCCNc1ccnc2cc(C(F)(F)F)ccc12)Cc1ccco1` [SJ000361265] registered a TR-FRET signal of 24.11. On the same count and under the same terms, the same measure for `CCCN(CCCNc1ccnc2cc(C(F)(F)F)ccc12)CC1CC1` [SJ000361266]: 48.15; for `CCCN(CCCNc1ccnc2cc(C(F)(F)F)ccc12)Cc1ccoc1` [SJ000361267]: 28.55.

The compound `CCCN(CCCNc1ccnc2cc(C(F)(F)F)ccc12)CC1CCCCC1` [SJ000361268] came in with a TR-FRET signal under setting [2] of 33.31. Under setting [2], `CCCN(CCCNc1ccnc2cc(C(F)(F)F)ccc12)CC(CC)CC` [SJ000361269] yielded a TR-FRET signal of 30.66. `CCCN(CCCNc1ccnc2cc(C(F)(F)F)ccc12)Cc1ccc2c(c1)OCO2` [SJ000361270] gave a TR-FRET signal under setting [2] of 5.623. Same read-out and setting: the same measure for `CCCCCN(CCC)CCCNc1ccnc2cc(C(F)(F)F)ccc12` [SJ000361271]: 30.93; for `CCCN(CCCNc1ccnc2cc(C(F)(F)F)ccc12)Cc1ccc(F)c(F)c1` [SJ000361272]: 13.84. The same measure, in the same setting: the same measure for `CCCN(CCCNc1ccnc2cc(C(F)(F)F)ccc12)Cc1ccc(OC)cc1` [SJ000361273]: 22.9.

In turn, `CCCN(CCCNc1ccnc2cc(C(F)(F)F)ccc12)Cc1ccccc1F` [SJ000361274] came in with a TR-FRET signal under setting [2] of 19.22. On to `CCCCCN(CCCCC)CC(=O)Nc1c2c(nc3ccccc13)CCC2` [SJ000487033], for which, under setting [1], the TR-FRET signal is listed as −68.07.

`COC(=O)CN1CCN(c2cc(C)nc3ccccc23)C(C)C1=O` (centres unmarked) [SJ000516812] returned a TR-FRET signal under setting [1] of 3.503. On the same count and under the same terms, the same measure for `Clc1ccc2c(N3CCN(CCCN4CCN(c5ccnc6cc(Cl)ccc56)CC4)CC3)ccnc2c1` [SJ000518980]: −2.989; for `Cc1[nH]cnc1CN(CCCCNc1ccnc2cc(Cl)ccc12)Cc1ccccc1` [SJ000520428]: 15.11.

For `COC(=O)CCCCCN(CCCNc1ccnc2cc(Cl)ccc12)Cc1ccccc1` [SJ000520429], under setting [2], the TR-FRET signal is listed as 17.14. Take `Clc1ccc2c(NCCCN(Cc3ccccc3)Cc3ccc4[nH]ccc4c3)ccnc2c1` [SJ000520430]: the TR-FRET signal under setting [2] was determined as 66.43. `Cn1ccnc1CN(CCCNc1ccnc2cc(Cl)ccc12)Cc1ccccc1` [SJ000520431] registered a TR-FRET signal under setting [2] of 15.36. Take `COC(=O)CCCCCN(CCCCNc1ccnc2cc(Cl)ccc12)Cc1ccccc1` [SJ000520432]: under setting [1], the TR-FRET signal is recorded as 23.58.

Under setting [2], `Clc1ccc2c(NCCCN(Cc3ccccc3)Cc3c[nH]c4ccccc34)ccnc2c1` [SJ000520433] returned a TR-FRET signal of 40.19. In the case of `Clc1ccc2c(NCCCCN(Cc3ccccc3)Cc3ccc4[nH]ccc4c3)ccnc2c1` [SJ000520434], the TR-FRET signal under setting [1] is listed as 69.44. In the case of `Cn1ccnc1CN(CCCCNc1ccnc2cc(Cl)ccc12)Cc1ccccc1` [SJ000520435], the TR-FRET signal under setting [1] is 5.888. The compound `Clc1ccc2c(NCCCCN(Cc3ccccc3)Cc3cccc4c3OCO4)ccnc2c1` [SJ000520436] had a TR-FRET signal under setting [1] of 21.65. In turn, `COc1ccc(CN(CCCNc2ccnc3cc(Cl)ccc23)Cc2ccccc2)cc1F` [SJ000520437] showed a TR-FRET signal under setting [2] of 23.65.

Take `COc1ccc(CN(CCCCNc2ccnc3cc(Cl)ccc23)Cc2ccccc2)cc1F` [SJ000520438]: the TR-FRET signal under setting [1] came to 13.15. Turning to `Cn1cc(CN(CCCNc2ccnc3cc(Cl)ccc23)Cc2ccccc2)c2ccccc21` [SJ000520439], the TR-FRET signal under setting [2] is on record as −9.311. `Cn1cc(CN(CCCCNc2ccnc3cc(Cl)ccc23)Cc2ccccc2)c2ccccc21` [SJ000520440]: the TR-FRET signal under setting [1] is recorded as −14.35. Still for that read-out and setting: the same measure for `COc1ccc(F)c(CN(CCCCNc2ccnc3cc(Cl)ccc23)Cc2ccccc2)c1` [SJ000520441]: 14.55. With `CCc1ccc(CN(CCCNc2ccnc3cc(Cl)ccc23)Cc2ccccc2)cc1` [SJ000520442], under setting [2], the TR-FRET signal is given as 18.89. With `CCc1ccc(CN(CCCCNc2ccnc3cc(Cl)ccc23)Cc2ccccc2)cc1` [SJ000520443], the TR-FRET signal under setting [1] turned out to be 29.91. In the case of `COc1ccc(C(F)(F)F)cc1CN(CCCCNc1ccnc2cc(Cl)ccc12)Cc1ccccc1` [SJ000520444], under setting [1], the TR-FRET signal amounted to 31.82. Consider `COc1ccc(F)c(CN(CCCNc2ccnc3cc(Cl)ccc23)Cc2ccccc2)c1` [SJ000520445], for which, under setting [2], the TR-FRET signal was found to be 4.762. In turn, `Clc1ccc2c(NCCCCN(Cc3ccccc3)Cc3csc4ccccc34)ccnc2c1` [SJ000520446] registered a TR-FRET signal under setting [1] of 33.98. Still for that read-out and setting: then `COc1ccc(OC(F)(F)F)cc1CN(CCCCNc1ccnc2cc(Cl)ccc12)Cc1ccccc1` [SJ000520447], with 26.66; and `Clc1ccc2c(NCCCCN(Cc3ccccc3)Cc3nccs3)ccnc2c1` [SJ000520448], with −1.698; and `Cc1ccc(F)cc1CN(CCCCNc1ccnc2cc(Cl)ccc12)Cc1ccccc1` [SJ000520449], with 42.32.

For `COc1ccc(C(F)(F)F)cc1CN(CCCNc1ccnc2cc(Cl)ccc12)Cc1ccccc1` [SJ000520450], the TR-FRET signal under setting [2] turned out to be 23.18.

Consider `FC(F)(F)Oc1ccc(CN(CCCCNc2ccnc3cc(Cl)ccc23)Cc2ccccc2)cc1` [SJ000520451], for which the TR-FRET signal under setting [1] worked out at 39.87.

Under setting [2], `COc1ccc(OC(F)(F)F)cc1CN(CCCNc1ccnc2cc(Cl)ccc12)Cc1ccccc1` [SJ000520452] had a TR-FRET signal of 20.44. With `Clc1ccc2c(NCCCCN(Cc3ccccc3)Cc3cccnc3Br)ccnc2c1` [SJ000520453], under setting [1], the TR-FRET signal was found to be 2.377. `Clc1ccc2c(NCCCN(Cc3ccccc3)Cc3csc4ccccc34)ccnc2c1` [SJ000520454] displayed a TR-FRET signal under setting [2] of 28.14.

On to `FC(F)(F)c1cccc(CN(CCCCNc2ccnc3cc(Cl)ccc23)Cc2ccccc2)c1` [SJ000520455], for which the TR-FRET signal under setting [1] was 26.38. Regarding `Cc1csc(CN(CCCCNc2ccnc3cc(Cl)ccc23)Cc2ccccc2)n1` [SJ000520456], the TR-FRET signal under setting [1] is on record as −12.86. The same measure, in the same setting: the same measure for `FC(F)(F)Oc1cccc(CN(CCCCNc2ccnc3cc(Cl)ccc23)Cc2ccccc2)c1` [SJ000520457]: 33.31. The compound `Cc1ccc(F)cc1CN(CCCNc1ccnc2cc(Cl)ccc12)Cc1ccccc1` [SJ000520458] returned a TR-FRET signal under setting [2] of 29.77.

With `FC(F)(F)Oc1ccccc1CN(CCCCNc1ccnc2cc(Cl)ccc12)Cc1ccccc1` [SJ000520459], the TR-FRET signal under setting [1] is 30.86.
